Measured values taken from patent publication US9650339B2, “Inhibitors of histone demethylases” (Gilead Sciences, Inc., priority 2013, dated 2017).

What was measured:
KDM2B (FBXL10) = molecular target: T1, KDM2B (FBXL10) (Homo sapiens, UniProt Q8NHM5); assay: Histone lysine demethylase AlphaLISA assay, KDM2B; type: biochemical; settings: read-out: KDM2B HDME Inhibition IC50
T1 sequence (Q8NHM5 1-650): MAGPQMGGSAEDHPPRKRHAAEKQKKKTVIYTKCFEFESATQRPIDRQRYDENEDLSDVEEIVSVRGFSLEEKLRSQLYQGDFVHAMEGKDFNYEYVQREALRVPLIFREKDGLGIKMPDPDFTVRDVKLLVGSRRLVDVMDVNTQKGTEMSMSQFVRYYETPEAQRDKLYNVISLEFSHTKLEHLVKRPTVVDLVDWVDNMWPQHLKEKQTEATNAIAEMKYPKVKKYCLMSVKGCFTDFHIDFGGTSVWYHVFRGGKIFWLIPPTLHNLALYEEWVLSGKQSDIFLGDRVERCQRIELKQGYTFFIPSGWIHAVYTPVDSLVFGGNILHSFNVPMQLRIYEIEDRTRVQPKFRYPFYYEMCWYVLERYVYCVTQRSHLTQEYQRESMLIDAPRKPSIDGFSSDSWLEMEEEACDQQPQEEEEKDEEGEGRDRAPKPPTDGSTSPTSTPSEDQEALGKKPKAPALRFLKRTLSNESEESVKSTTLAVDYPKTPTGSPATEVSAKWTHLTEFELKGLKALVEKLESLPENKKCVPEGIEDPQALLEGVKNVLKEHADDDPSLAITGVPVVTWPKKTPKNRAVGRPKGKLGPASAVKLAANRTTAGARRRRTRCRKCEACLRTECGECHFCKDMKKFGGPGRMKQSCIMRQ
Method: (§1) Assays are performed analogously to the protocol described by PerkinElmer (Roy et al. PerkinElmer Technical Note: AlphaLISA #12, April 2011)
(§2) Enzymes are dissolved in enzyme buffer and incubated for 10 min before being added to 3% DMSO solutions of compounds in enzyme buffer. Incubated for another 10 minutes, before substrate solution is added and the reaction mixture is incubated at room temperature. 10 μL acceptor beads, suspended in Epigenetic Buffer (Perkin Elmer AL008) from stock, are added and the suspension is incubated in the dark at room temperature, before a suspension of streptavidin donor beads (Perkin Elmer 6760002) in Epigenetic Buffer is added. After incubation at room temperature in the dark the plates are read. […]
BH3K36M2: RKAAPATGGVK(Me2)KPHRYRPGTVK-(BIOTIN)? (Anaspec)
(§3) Substrate Solution: Substrate, 25 μM L-Asc, and 10 μM α-KG in Buffer A.

KDM4C (JMJD2C) = molecular target: T2, KDM4C (JMJD2C) (Homo sapiens, UniProt Q9H3R0); assay: Histone lysine demethylase AlphaLISA assay, KDM4C; type: biochemical; settings: read-out: KDM4C HDME Inhibition IC50
T2 sequence (Q9H3R0 1-349): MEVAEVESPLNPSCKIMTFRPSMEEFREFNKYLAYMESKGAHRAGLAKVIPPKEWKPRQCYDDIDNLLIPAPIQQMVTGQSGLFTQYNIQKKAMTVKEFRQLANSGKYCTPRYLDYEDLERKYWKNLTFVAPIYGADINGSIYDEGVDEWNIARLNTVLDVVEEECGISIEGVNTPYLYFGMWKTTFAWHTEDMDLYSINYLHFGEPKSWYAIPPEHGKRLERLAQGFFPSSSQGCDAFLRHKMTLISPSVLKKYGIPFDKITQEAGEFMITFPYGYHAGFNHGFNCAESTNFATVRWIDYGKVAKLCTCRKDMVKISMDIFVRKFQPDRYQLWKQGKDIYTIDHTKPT
Method: as §1
Enzymes are dissolved in enzyme buffer and incubated for 10 min before being added to 3% DMSO solutions of compounds in enzyme buffer. Incubated for another 10 minutes, before substrate solution is added and the reaction mixture is incubated at room temperature. 10 μL acceptor beads, suspended in Epigenetic Buffer (Perkin Elmer AL008) from stock, are added and the suspension is incubated in the dark at room temperature, before a suspension of streptavidin donor beads (Perkin Elmer 6760002) in Epigenetic Buffer is added. After incubation at room temperature in the dark the plates are read.
BK9M3: Biotin-ARTKQTAR(KMe3)STGGKAPRKQ-NH2 (Caslo, Denmark) […]
as §3

KDM5B (PLU-1) = molecular target: T3, KDM5B (PLU-1) (Homo sapiens, UniProt Q9UGL1); assay: Histone lysine demethylase AlphaLISA assay, KDM5B; type: biochemical; settings: read-out: KDM5B HDME Inhibition IC50
T3 sequence (Q9UGL1 1-809): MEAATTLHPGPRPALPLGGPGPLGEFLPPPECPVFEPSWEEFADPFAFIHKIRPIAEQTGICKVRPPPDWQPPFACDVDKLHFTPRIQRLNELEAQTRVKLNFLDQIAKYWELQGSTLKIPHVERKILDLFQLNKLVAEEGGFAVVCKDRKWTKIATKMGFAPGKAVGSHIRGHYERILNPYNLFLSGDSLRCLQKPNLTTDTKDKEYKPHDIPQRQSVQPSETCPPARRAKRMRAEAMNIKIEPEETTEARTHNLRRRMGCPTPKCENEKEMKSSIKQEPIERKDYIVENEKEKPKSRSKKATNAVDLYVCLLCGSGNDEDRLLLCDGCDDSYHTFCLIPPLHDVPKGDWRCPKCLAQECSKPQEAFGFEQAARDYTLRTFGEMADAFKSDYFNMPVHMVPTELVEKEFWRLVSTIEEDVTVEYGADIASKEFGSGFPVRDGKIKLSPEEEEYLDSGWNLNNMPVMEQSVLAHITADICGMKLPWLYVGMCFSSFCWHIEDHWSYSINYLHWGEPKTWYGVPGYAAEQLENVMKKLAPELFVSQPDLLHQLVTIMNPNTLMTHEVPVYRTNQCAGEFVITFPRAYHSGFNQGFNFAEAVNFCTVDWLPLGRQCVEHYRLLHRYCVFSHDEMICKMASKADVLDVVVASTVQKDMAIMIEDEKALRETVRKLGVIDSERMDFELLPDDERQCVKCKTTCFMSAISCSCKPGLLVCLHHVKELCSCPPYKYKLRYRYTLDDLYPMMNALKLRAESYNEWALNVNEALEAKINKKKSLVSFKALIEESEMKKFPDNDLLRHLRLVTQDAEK
Method: as §1, §2
H3K4M3B: H-ART(Kme3)QTARKSTGGKAPRKQLA-NH-Biotin (Caslo, Denmark) […]
as §3

KDM6A (UTX) = KDM6A (UTX) (Homo sapiens, UniProt O15550); assay: Histone lysine demethylase AlphaLISA assay, KDM6A; type: biochemical; settings: read-out: KDM6A HDME Inhibition IC50
Method: as §1, §2
BK27M3: Biotin-ATKAAR(Kme3)SAPATGGVKKPHRY-NH2? (Caslo, Denmark) […]
as §3

KDM7 (PHF8) = molecular target: T4, KDM7 (PHF8) (Homo sapiens, UniProt Q9UPP1); assay: Histone lysine demethylase AlphaLISA assay, KDM7; type: biochemical; settings: read-out: PHF8 HDME Inhibition IC50
T4 construct: KDM7 (PHF8); BRIC; 1-1322; Bac
Method: as §1, §2
BK9M2: Biotin-ARTKQTAR(KMe2)STGGKAPRKQ-NH2 (AnaSpec 64359)
BK9M1: Biotin-ARTKQTAR(KMe1)STGGKAPRKQ-NH2 (AnaSpec 64358) […]
as §3

H3K4me3 mark = assay: Histone lysine demethylase immunofluorescence assay, non-transfected U2OS cells; type: cell-based; settings: Homo sapiens, staining of the H3K4me3 mark, 20 hours incubation with compound
Method: U2OS cells were harvested and seeded into multi well plates into media containing compound. The media used was DMEM containing 5% FBS and pen/strep. 20 hours after incubation of cells with compounds, the cells were washed once in PBS, harvested by fixation with formaldehyde 4% aqueous solution, and washed in PBS. Subsequently, the cells were permeabilized in PBS with 0.2% Triton X-100. Blocking was performed in PBS with 0.2% Triton X-100 and 5% FBS. The cells were incubated with αH3K4me3 primary antibody (Cell Signaling, #9751S) in blocking solution over night at 4° C. After incubation with primary antibody, the cells were washed with PBS, incubated with secondary antibody (Alexa fluor 594 goat anti rabbit IgG, Invitrogen, A11012) and Hoechst, (Sigma, 33342) in blocking solution, and washed again with PBS. Finally, PBS was added and high throughput imaging and analysis were performed by an IN Cell Analyzer 1000 (GE Healthcare). The IC50 values were based on an average measure of the staining of the H3K4me3 mark in cells.

MCF7 cells = assay: Cell proliferation assay MCF7; type: cell-based; settings: MCF7 human breast cancer cells; 120 hours; ATPlite 1 Step
Method: MCF7 cells were seeded in multi well plates at a density optimized to give approximately 90% confluent cells at the time of harvest. Cells were incubated for 24 hours before addition of compound. Compounds were diluted in complete medium and added to the plates in duplicates. The final concentration of DMSO was maximum 0.5%. Complete medium used was DMEM with GlutaMAX containing 10% FBS and pen/strep.
120 hours after addition of compounds, the plates were harvested and analyzed by ATPlite 1 Step (Perkin Elmer, cat no 6016739) according to the manufactures recommendation.

[1] = tested on: OPM-2 subcutaneous mouse xenograft model of multiple myeloma; assay: Inhibition of tumor growth in mouse xenograft model; type: in vivo, NOD/SCID mice (Mus Musculus); settings: QD × 4/week × 2
Text: Briefly, NOD/SCID mice γ-irradiated with ^60Co (200 rad) (12 animals/group) were inoculated subcutaneously with 8×10^6 OPM-2 cells assisted with Matrigel. Dosing according to the table below started when tumors reached an average size of ˜100 mm^3 (day 15). Dosing continued until the average size of tumors in the vehicle group reached ˜2000 mm^3 (day 31).
Animals were 7 weeks old female NOD/SCID mice (Mus Musculus), supplied by Beijing HFK Bio-Technology Co. Ltd. (Beijing, china). Body weight was approx. 16-23 g. Before commencement of treatment, all animals were weighed and tumor volumes were measured, and mice were assigned into groups using randomized block design based upon their tumor volumes.
OPM-2 tumor cells were maintained in vitro in RPMI1640 medium supplemented with 20% fetal bovine serum at 37° C. in an atmosphere of 5% CO2 in air. The tumor cells were routinely subcultured twice weekly. The cells growing in an exponential growth phase were harvested and counted for tumor inoculation.
Tumor sizes were measured three times weekly in two dimensions using a caliper, and the volume was expressed in mm^3 using the formula: V=0.5 a×b^2 where a and b were the long and short diameters of the tumor, respectively.

Sequence of KDM6A (UTX) (O15550 919-1401): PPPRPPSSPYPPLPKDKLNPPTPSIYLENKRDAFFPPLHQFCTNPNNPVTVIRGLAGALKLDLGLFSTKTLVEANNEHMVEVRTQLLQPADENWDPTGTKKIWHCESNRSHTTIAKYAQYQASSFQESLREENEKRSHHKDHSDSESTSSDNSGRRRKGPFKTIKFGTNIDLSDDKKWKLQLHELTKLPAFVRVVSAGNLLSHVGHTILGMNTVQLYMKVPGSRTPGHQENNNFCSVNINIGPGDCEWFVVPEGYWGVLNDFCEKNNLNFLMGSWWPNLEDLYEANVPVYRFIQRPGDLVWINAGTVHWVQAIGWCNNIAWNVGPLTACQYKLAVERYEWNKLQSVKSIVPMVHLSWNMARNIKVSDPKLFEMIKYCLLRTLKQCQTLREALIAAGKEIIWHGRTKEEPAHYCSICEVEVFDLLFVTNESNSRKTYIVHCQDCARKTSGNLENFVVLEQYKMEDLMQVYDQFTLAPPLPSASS
T4 sequence (Q9UPP1 37-440 limits assumed): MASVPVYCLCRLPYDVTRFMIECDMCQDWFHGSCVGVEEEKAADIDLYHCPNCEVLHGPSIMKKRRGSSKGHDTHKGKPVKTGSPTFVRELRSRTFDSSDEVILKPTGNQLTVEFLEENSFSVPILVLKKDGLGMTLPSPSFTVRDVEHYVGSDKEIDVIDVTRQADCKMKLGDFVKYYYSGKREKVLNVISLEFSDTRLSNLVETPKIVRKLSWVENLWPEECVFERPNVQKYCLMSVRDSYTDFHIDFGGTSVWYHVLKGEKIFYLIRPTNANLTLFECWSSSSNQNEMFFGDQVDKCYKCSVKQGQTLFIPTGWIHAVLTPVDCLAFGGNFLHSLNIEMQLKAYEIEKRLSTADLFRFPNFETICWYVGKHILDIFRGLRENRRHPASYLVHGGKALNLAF

IC50 (KDM2B (FBXL10))	IC50 (KDM4C (JMJD2C))	IC50 (KDM5B (PLU-1))	IC50 (KDM6A (UTX))	IC50 (KDM7 (PHF8))	IC50 (H3K4me3 mark)	EC50 (MCF7 cells)	Compound	Tumor Volume ([1]; day 15 after inoculation (start of dosing))	Tumor Volume ([1]; day 17 after inoculation)	Tumor Volume ([1]; day 19 after inoculation)	Tumor Volume ([1]; day 21 after inoculation)	Tumor Volume ([1]; day 24 after inoculation)	Tumor Volume ([1]; day 26 after inoculation)	Tumor Volume ([1]; day 28 after inoculation)	Tumor Volume ([1]; day 31 after inoculation)
> 2.5 µM	> 2.5 µM	< 0.25 µM	> 2.5 µM	> 2.5 µM	< 0.25 µM	0.25 to 2.5 µM	CCN(CC)CCCCNCc1cc(CNC(=O)C(=O)O)ccn1 [Compound 27, ({[2-({[4-(diethylamino)-butyl]amino}methyl)pyridin-4-yl]methyl}carbamoyl)-formic acid]								
> 2.5 µM	0.25 to 2.5 µM	< 0.25 µM	> 2.5 µM	> 2.5 µM	< 0.25 µM	< 0.25 µM	CCN(CCN(C)C)C(=O)CNCc1cc(/C=N/CC2(CO)CC2)ccn1 [Compound 88, N-[2-(dimethylamino)-ethyl]-N-ethyl-2-[({4-[({[1-(hydroxymethyl)cyclopropyl]methyl}imino)methyl]pyridin-2-yl}methyl)amino] acetamide]								
							Nc1cccc2c1CN(C1CCC(=O)NC1=O)C2=O (stereo not shown) [Lenolidomide, reference compound]	101 ± 12 mm^3	156 ± 26 mm^3	178 ± 36 mm^3	266 ± 56 mm^3	395 ± 92 mm^3	509 ± 116 mm^3	767 ± 169 mm^3	1148 ± 175 mm^3
